The results in this text go back to patent US6794396B2, “Substituted pyridines useful for inhibiting cholesteryl ester transfer protein activity” (Pharmacia Corporation, priority 1998, dated 2004).

Structures are written as SMILES.

Tested on in the first data set: not given
Assay: not given
Details: not given
As a reminder, the melting point is the temperature, or range, at which the solid turns liquid. Turning to `COC(=O)c1c(OC(=O)N(c2ccccc2)c2ccccc2)cc(C(F)(F)F)nc1C(F)(F)F` [Compound 25, Methyl 2,6-Bis(trifluoromethyl)-4-(diphenylaminocarbonyloxy)-3-pyridinecarboxylate], the melting point lay in the range of 114 to 116 °C. Same read-out and setting: with `COC(=O)c1c(C(F)F)nc(C(F)(F)F)c(C(=O)Sc2cc(C(C)(C)C)cc(C(C)(C)C)c2)c1CC(C)C` [Compound 151, Methyl 2-(Difluoromethyl)-5-{[(3,5-di-t-butylphenyl)thio]carbonyl}-4-(2-methylpropyl)-6-(trifluoromethyl)-3-pyridinecarboxylate] the figure was 102.5 to 108.5 °C. Still for that read-out and setting: next, `COC(=O)c1c(C(F)F)nc(C(F)(F)F)c(C(=O)Sc2ccc(C)cc2C)c1CC(C)C` [Compound 152, Methyl 2-(Difluoromethyl)-5-{[(2,4-dimethylphenyl)thio]carbonyl}-4-(2-methylpropyl)-6-(trifluoromethyl)-3-pyridinecarboxylate]: 98.5 to 102.5 °C; `COC(=O)c1c(C(F)F)nc(C(F)(F)F)c(C(=O)Oc2c(C)cc([N+](=O)[O-])cc2C)c1CC(C)C` [Compound 176, 3-Methyl 5-(2,6-Dimethyl-4-nitrophenyl) 2-(Difluoromethyl)-4-(2-methylpropyl)-6-(trifluoromethyl)-3,5-pyridicarboxylate]: 96 to 97 °C.

Another data set addresses T1, CETP (Homo sapiens, UniProt P11597).
T1 construct: made in house; host or cells: CHO cells (serum-free conditioned medium)
T1 sequence (P11597 18-493): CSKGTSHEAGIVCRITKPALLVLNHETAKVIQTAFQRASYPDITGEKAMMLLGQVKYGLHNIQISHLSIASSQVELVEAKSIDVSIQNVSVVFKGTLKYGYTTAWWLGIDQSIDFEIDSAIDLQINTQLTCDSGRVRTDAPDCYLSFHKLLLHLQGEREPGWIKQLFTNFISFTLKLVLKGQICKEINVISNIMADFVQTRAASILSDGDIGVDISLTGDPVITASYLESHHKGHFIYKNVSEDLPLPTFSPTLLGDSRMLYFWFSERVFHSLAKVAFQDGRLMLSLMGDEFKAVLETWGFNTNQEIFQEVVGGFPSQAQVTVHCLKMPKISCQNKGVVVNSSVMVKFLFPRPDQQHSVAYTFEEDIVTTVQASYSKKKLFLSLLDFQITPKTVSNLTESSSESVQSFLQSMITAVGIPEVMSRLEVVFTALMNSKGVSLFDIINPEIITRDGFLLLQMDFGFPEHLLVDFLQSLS
Nature of the data set: CETP activity in vitro: transfer of [3H]CE from HDL donor to LDL acceptor particles. To be noted: 50% inhibition of [3H]CE transfer from HDL to LDL, 2 hours at 37° C.; read-out: IC50(μm). Type of data set: biochemical. The procedure, abridged: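 Transfer of radiolabelled cholesteryl ester from HDL to LDL was followed over 2 h at 37 °C in Tris buffer (pH 7.4, 150 mM NaCl, 2 mM EDTA, 1% BSA), using CETP secreted by transfected CHO cells. Radioactivity in dextran sulfate/Mg-precipitated LDL was measured by scintillation counting, giving IC50.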
As a reminder, the IC50 is the point on the concentration scale where inhibition reaches its midpoint. As for `COC(=O)c1c(OC(=O)N(c2ccccc2)c2ccccc2)cc(C(F)(F)F)nc1C(F)(F)F` [Compound 25, Methyl 2,6-Bis(trifluoromethyl)-4-(diphenylaminocarbonyloxy)-3-pyridinecarboxylate], the IC50 stood at 40 µM.

The data set is the same for the next values; noted with them: IC50(μm), 50% inhibition of [3H]CE transfer from HDL to LDL, 2 hours at 37° C.
For `COC(=O)c1c(C(F)F)nc(C(F)(F)F)c(C(=O)Sc2cc(C(C)(C)C)cc(C(C)(C)C)c2)c1CC(C)C` [Compound 151, Methyl 2-(Difluoromethyl)-5-{[(3,5-di-t-butylphenyl)thio]carbonyl}-4-(2-methylpropyl)-6-(trifluoromethyl)-3-pyridinecarboxylate], the IC50 was found to be 60 µM.

Take `COC(=O)c1c(C(F)F)nc(C(F)(F)F)c(C(=O)Sc2ccc(C)cc2C)c1CC(C)C` [Compound 152, Methyl 2-(Difluoromethyl)-5-{[(2,4-dimethylphenyl)thio]carbonyl}-4-(2-methylpropyl)-6-(trifluoromethyl)-3-pyridinecarboxylate]: half-maximal inhibition (IC50) required 60 µM.

Still in this data set, the particulars now being: IC50, Table 8.
The compound `C=CC(O)c1c(C(F)F)nc(C(F)(F)F)c(C(=O)OC)c1CC(C)C` (stereo not drawn) [Compound 295] registered an IC50 of over 100 µM.

Staying with this data set, now noted: Table 7, compounds of formula T-7; read-out: IC50.
Consider `COC(=O)c1c(C(F)F)nc(C(F)(F)F)c(SCc2cc(Cl)cc3c2OCOC3)c1CC(C)C` [Compound 246, Methyl 5[(6-chloro-1,3-benzodioxan-8-yl)methylthio]-2-(difluoromethyl)-4-(2-methylpropyl)-6-(trifluoromethyl)-3-pyridinecarboxylate], for which the IC50 amounted to 30 µM.

The same data set, now with this note: Table 8; read-out: IC50.
As to `Fc1ccc(-c2c(COCc3ccccc3)c(C(F)(F)F)nc(C(F)F)c2C(F)c2ccc(C(F)(F)F)cc2)cc1` (stereo not drawn) [Compound 248], the IC50 is 77 µM. Same read-out and setting: next, `OCc1c(C(F)(F)F)nc(C(F)F)c(C(F)c2ccc(C(F)(F)F)cc2)c1-c1ccc(F)cc1` (stereo not drawn) [Compound 249]: 5 µM; `CCOC(=O)c1c(C(F)(F)F)nc(C(F)F)c(C(F)c2ccc(Cl)cc2)c1-c1ccc(F)cc1` (stereo not drawn) [Compound 250]: 40 µM; `O=Cc1c(C(F)F)nc(C(F)(F)F)c(C(F)c2ccc(C(F)(F)F)cc2)c1-c1ccc(F)cc1` (stereo not drawn) [Compound 251]: 7 µM.

Take `O=Cc1c(C(F)F)nc(C(F)(F)F)c(COCc2ccccc2)c1-c1ccc(F)cc1` [Compound 252]: the half-inhibitory concentration (IC50) came out at 4.5 µM.

For the compound `OCc1c(C(F)(F)F)nc(C(F)F)c(C(F)c2ccc(C(F)(F)F)cc2)c1-c1ccc(F)cc1` (stereo not drawn) [Compound 253], the IC50 is 19 µM. `CCOC(=O)c1c(C(F)(F)F)nc(C(F)F)c(C(F)c2ccc(Cl)cc2)c1-c1ccc(F)cc1` (stereo not drawn) [Compound 254]: the IC50 was 55 µM.

In the case of `O=C(c1ccc(Cl)cc1)c1c(C(F)(F)F)nc(C(F)F)c(CO)c1-c1ccccc1` [Compound 258], the IC50 is 15 µM. Same read-out and setting: with `O=C(c1ccc2ccccc2c1)c1c(C(F)(F)F)nc(C(F)F)c(CO)c1-c1ccccc1` [Compound 259] the figure was 60 µM; with `CC(C)c1ccc(C(=O)c2c(C(F)(F)F)nc(C(F)F)c(CO)c2-c2ccccc2)cc1` [Compound 263], 40 µM. Same read-out and setting: with `O=C(c1ccc(Cl)cc1)c1c(C(F)(F)F)nc(C(F)F)c(CO)c1-c1ccccc1` [Compound 264] the figure was 30 µM. Still for that read-out and setting: with `CC(C)c1ccc(C(F)c2c(C(F)(F)F)nc(C(F)F)c(CO)c2-c2ccccc2)cc1` (stereo not drawn) [Compound 265] the figure was 60 µM; with `CC(C)c1ccc(C(O)c2c(C(F)(F)F)nc(C(F)F)c(CO)c2-c2ccccc2)cc1` (stereo not drawn) [Compound 266], over 100 µM; with `CCOC(=O)c1c(C(F)(F)F)nc(C(F)F)c(C(F)c2ccc(Cl)cc2)c1-c1ccccc1` (stereo not drawn) [Compound 267], 70 µM.

Turning to `CCOC(=O)c1c(C(F)(F)F)nc(C(F)F)c(C(F)c2ccc3ccccc3c2)c1-c1ccccc1` (stereo not drawn) [Compound 268], the IC50 was 70 µM.

Consider `OCc1c(C(F)F)nc(C(F)(F)F)c(C(O)c2ccc(Cl)cc2)c1-c1ccccc1` (stereo not drawn) [Compound 269], for which the IC50 was over 100 µM. Same read-out and setting: next, `OCc1c(C(F)F)nc(C(F)(F)F)c(C(O)c2ccc3ccccc3c2)c1-c1ccccc1` (stereo not drawn) [Compound 270]: over 100 µM.

With `CCOC(=O)c1c(C(F)(F)F)nc(C(F)F)c(C(F)c2ccc(C(C)C)cc2)c1-c1ccccc1` (stereo not drawn) [Compound 271], the IC50 was 70 µM. On to `CCOC(=O)c1c(C(F)(F)F)nc(C(F)F)c(C(O)c2ccc(Cl)cc2)c1-c1ccccc1` (stereo not drawn) [Compound 272], for which the IC50 is 90 µM. On the same count and under the same terms, with `CC(C)c1ccc(Cc2c(C(F)F)nc(C(F)(F)F)c(C=O)c2-c2ccccc2)cc1` [Compound 274] the figure was 8 µM.

Turning to `CC(C)c1ccc(C(O)c2c(C(F)F)nc(C(F)(F)F)c(CO)c2-c2ccccc2)cc1` (stereo not drawn) [Compound 275], the IC50 is over 100 µM. The same measure, in the same setting: with `OC(c1ccc(C(F)(F)F)cc1)c1c(C(F)F)nc(C(F)(F)F)c(COCc2ccccc2)c1-c1ccc(F)cc1` (stereo not drawn) [Compound 276] the figure was over 100 µM. On the same count and under the same terms, next, `CCOC(=O)c1c(C(F)(F)F)nc(C(F)F)c(C(O)c2ccc3ccccc3c2)c1-c1ccccc1` (stereo not drawn) [Compound 278]: 80 µM; `O=Cc1c(C(F)(F)F)nc(C(F)F)c(Cc2ccc3ccccc3c2)c1-c1ccccc1` [Compound 279]: 15 µM; `OCc1c(C(F)(F)F)nc(C(F)F)c(C(O)c2ccc3ccccc3c2)c1-c1ccccc1` (stereo not drawn) [Compound 280]: over 100 µM. With `OCc1c(C(F)F)nc(C(F)(F)F)c(COCc2ccccc2)c1-c1ccc(F)cc1` [Compound 281], the IC50 was over 100 µM. The same measure, in the same setting: with `CC(C)CC(O)c1c(C(F)F)nc(C(F)(F)F)c(C(F)c2ccc(C(F)(F)F)cc2)c1-c1ccc(F)cc1` (stereo not drawn) [Compound 283] the figure was 38.7 µM; with `C=CC(O)c1c(C(F)F)nc(C(F)(F)F)c(C(=O)c2ccc(C(F)(F)F)cc2)c1-c1ccc(F)cc1` (stereo not drawn) [Compound 284], 22.7 µM. The same measure, in the same setting: next, `O=Cc1c(C(F)F)nc(C(F)(F)F)c(C(=O)c2ccc3ccccc3c2)c1-c1ccccc1` [Compound 286]: 11.7 µM; `CC(C)CC(O)c1c(C(F)F)nc(C(F)(F)F)c(C(=O)c2ccc(C(F)(F)F)cc2)c1-c1ccc(F)cc1` (stereo not drawn) [Compound 288]: 19 µM; `C=CC(OC(=O)c1ccccc1)c1c(C(F)F)nc(C(F)(F)F)c(C(=O)c2ccc(OCC)cc2)c1-c1ccccc1` (stereo not drawn) [Compound 289]: 55.3 µM. The same measure, in the same setting: next, `O=C(c1ccc(C(F)(F)F)cc1)c1c(C(F)(F)F)nc(C(F)F)c(CO)c1-c1ccc(F)cc1` [Compound 292]: 16.2 µM; `O=Cc1c(C(F)F)nc(C(F)(F)F)c(C(=O)c2ccc(Cl)cc2)c1-c1ccccc1` [Compound 293]: 10.2 µM. As to `CCOC(=O)c1c(C(F)(F)F)nc(C(F)F)c(CN2CCCC2)c1-c1ccc(F)cc1` [Compound 294], the IC50 stood at 40 µM. On the same count and under the same terms, with `CCOC(=O)c1c(C(F)(F)F)nc(C(F)F)c(C(O)c2ccc(C(F)(F)F)cc2)c1-c1ccccc1` (stereo not drawn) [Compound 296] the figure was over 100 µM; with `OCc1c(C(F)(F)F)nc(C(F)F)c(CN2CCCC2)c1-c1ccccc1` [Compound 297], over 100 µM.
